According to ChEMBL document CHEMBL5715260, “Selectivity Literature for EUbOPEN Chemogenomic Library” (2024):

Experiments:
Set-up in all cases: recommended concentration 1 uM
[1] = molecular target: T1, Hepatocyte nuclear factor 4-alpha (Homo sapiens) (UniProt P41235); assay: Selectivity interaction (Reporter gene assay) EUB0000567a HNF4A
T1 sequence (whole entry): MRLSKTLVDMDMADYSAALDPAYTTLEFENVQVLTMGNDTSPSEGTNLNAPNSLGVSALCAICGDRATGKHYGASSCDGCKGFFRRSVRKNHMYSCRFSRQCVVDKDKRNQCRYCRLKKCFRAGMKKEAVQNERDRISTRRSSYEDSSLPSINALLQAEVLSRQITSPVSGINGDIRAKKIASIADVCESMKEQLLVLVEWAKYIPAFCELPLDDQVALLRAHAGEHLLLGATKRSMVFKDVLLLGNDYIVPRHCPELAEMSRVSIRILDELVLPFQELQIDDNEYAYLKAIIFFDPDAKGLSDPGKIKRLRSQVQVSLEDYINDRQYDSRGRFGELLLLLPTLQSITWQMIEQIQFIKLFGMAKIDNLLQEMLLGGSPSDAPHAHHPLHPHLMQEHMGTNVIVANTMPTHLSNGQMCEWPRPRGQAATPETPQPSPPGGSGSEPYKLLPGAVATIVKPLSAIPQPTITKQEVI

[2] = molecular target: T2, Nuclear receptor subfamily 2 group C member 1 (Homo sapiens) (UniProt P13056); assay: Selectivity interaction (Reporter gene assay) EUB0000567a NR2C1
T2 sequence (whole entry): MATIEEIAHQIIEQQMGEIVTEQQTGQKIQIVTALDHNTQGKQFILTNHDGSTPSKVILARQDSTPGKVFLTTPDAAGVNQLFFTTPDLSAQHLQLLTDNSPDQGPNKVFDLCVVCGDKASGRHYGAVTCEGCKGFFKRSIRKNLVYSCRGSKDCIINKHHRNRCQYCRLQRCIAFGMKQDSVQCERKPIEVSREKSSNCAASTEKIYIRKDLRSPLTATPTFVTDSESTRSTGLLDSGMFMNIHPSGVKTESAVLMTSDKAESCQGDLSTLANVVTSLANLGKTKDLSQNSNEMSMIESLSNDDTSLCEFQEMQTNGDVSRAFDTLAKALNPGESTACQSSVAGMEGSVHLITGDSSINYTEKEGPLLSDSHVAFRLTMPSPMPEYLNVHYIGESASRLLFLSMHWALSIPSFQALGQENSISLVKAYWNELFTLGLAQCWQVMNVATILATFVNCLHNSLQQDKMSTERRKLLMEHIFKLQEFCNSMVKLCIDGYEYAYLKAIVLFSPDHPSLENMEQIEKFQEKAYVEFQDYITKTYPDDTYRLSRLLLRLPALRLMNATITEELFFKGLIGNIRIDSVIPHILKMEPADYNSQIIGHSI

[3] = molecular target: Nuclear receptor subfamily 2 group E member 1 (Homo sapiens) (UniProt Q9Y466); assay: Selectivity interaction (Reporter gene assay) EUB0000567a NR2E1
[4] = molecular target: Nuclear receptor subfamily 4immunitygroup A member 1 (Homo sapiens) (UniProt P22736); assay: Selectivity interaction (Reporter gene assay) EUB0000567a NR4A1
[5] = molecular target: Steroidogenic factor 1 (Homo sapiens) (UniProt Q13285); assay: Selectivity interaction (Reporter gene assay) EUB0000567a NR5A1
[6] = molecular target: T3, Alpha trans-inducing protein (Human alphaherpesvirus 1) (UniProt A0A5J6DW59); assay: Selectivity interaction (Reporter gene assay) EUB0000567a UL48
[7] = molecular target: T4, Retinoic acid receptor RXR-alpha (Homo sapiens) (UniProt P19793); assay: Selectivity interaction (Reporter gene assay) EUB0000567a RXRA
T4 sequence (whole entry): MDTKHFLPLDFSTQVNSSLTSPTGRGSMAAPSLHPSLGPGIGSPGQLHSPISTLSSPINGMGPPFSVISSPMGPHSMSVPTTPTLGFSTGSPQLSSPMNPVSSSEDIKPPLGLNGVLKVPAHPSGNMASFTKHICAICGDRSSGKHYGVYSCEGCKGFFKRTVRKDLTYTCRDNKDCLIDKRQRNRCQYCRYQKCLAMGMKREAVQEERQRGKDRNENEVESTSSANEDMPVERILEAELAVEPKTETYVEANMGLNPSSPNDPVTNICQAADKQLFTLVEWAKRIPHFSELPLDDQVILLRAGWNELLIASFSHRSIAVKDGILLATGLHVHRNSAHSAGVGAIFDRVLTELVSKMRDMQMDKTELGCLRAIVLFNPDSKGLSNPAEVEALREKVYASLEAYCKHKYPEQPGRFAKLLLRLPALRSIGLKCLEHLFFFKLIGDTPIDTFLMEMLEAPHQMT

[8] = molecular target: T1, Hepatocyte nuclear factor 4-alpha (Homo sapiens); assay: Selectivity interaction (Reporter gene assay) EUB0000563a HNF4A
[9] = molecular target: T2, Nuclear receptor subfamily 2 group C member 1 (Homo sapiens); assay: Selectivity interaction (Reporter gene assay) EUB0000563a NR2C1
[10] = molecular target: Nuclear receptor subfamily 2 group E member 1 (Homo sapiens) (UniProt Q9Y466); assay: Selectivity interaction (Reporter gene assay) EUB0000563a NR2E1
[11] = molecular target: Nuclear receptor subfamily 4immunitygroup A member 1 (Homo sapiens) (UniProt P22736); assay: Selectivity interaction (Reporter gene assay) EUB0000563a NR4A1
[12] = molecular target: Steroidogenic factor 1 (Homo sapiens) (UniProt Q13285); assay: Selectivity interaction (Reporter gene assay) EUB0000563a NR5A1
[13] = molecular target: T3, Alpha trans-inducing protein (Human alphaherpesvirus 1); assay: Selectivity interaction (Reporter gene assay) EUB0000563a UL48
[14] = molecular target: T4, Retinoic acid receptor RXR-alpha (Homo sapiens); assay: Selectivity interaction (Reporter gene assay) EUB0000563a RXRA; details: reference bexarotene 1 uM, Selectivity number of off-targets 0.0, Selectivity number of targets 1.0, Source Knowledge inhouse
[15] = molecular target: Peroxisome proliferator-activated receptor alpha (Homo sapiens) (UniProt Q07869); assay: Selectivity interaction (Reporter gene assay) EUB0000569a PPARA; details: screened at recom. conc., Selectivity number of off-targets 2.0, Selectivity number of targets 19.0, Source Knowledge inhouse
[16] = molecular target: T5, Peroxisome proliferator-activated receptor gamma (Homo sapiens) (UniProt P37231); assay: Selectivity interaction (Reporter gene assay) EUB0000569a PPARG; details: screened at recom. conc., Selectivity number of off-targets 2.0, Selectivity number of targets 19.0, Source Knowledge inhouse
T5 sequence (whole entry): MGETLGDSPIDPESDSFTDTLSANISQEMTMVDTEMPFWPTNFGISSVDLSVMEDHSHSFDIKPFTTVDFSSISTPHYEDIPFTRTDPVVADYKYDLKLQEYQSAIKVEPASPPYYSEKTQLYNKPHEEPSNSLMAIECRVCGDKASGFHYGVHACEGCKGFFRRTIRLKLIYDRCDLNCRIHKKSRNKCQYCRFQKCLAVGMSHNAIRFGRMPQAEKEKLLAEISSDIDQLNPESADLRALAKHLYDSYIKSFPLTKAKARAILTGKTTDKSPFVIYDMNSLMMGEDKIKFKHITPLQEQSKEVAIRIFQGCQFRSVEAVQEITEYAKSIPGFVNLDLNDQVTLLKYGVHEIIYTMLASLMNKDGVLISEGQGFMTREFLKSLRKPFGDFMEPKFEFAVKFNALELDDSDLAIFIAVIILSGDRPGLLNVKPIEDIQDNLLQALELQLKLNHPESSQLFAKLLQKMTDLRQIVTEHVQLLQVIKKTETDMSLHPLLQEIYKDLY

[17] = molecular target: T1, Hepatocyte nuclear factor 4-alpha (Homo sapiens); assay: Selectivity interaction (Reporter gene assay) EUB0000569a HNF4A
[18] = molecular target: T2, Nuclear receptor subfamily 2 group C member 1 (Homo sapiens); assay: Selectivity interaction (Reporter gene assay) EUB0000569a NR2C1
[19] = molecular target: Nuclear receptor subfamily 2 group E member 1 (Homo sapiens) (UniProt Q9Y466); assay: Selectivity interaction (Reporter gene assay) EUB0000569a NR2E1
[20] = molecular target: Nuclear receptor subfamily 4immunitygroup A member 1 (Homo sapiens) (UniProt P22736); assay: Selectivity interaction (Reporter gene assay) EUB0000569a NR4A1
[21] = molecular target: Steroidogenic factor 1 (Homo sapiens) (UniProt Q13285); assay: Selectivity interaction (Reporter gene assay) EUB0000569a NR5A1
[22] = molecular target: T3, Alpha trans-inducing protein (Human alphaherpesvirus 1); assay: Selectivity interaction (Reporter gene assay) EUB0000569a UL48
[23] = molecular target: T4, Retinoic acid receptor RXR-alpha (Homo sapiens); assay: Selectivity interaction (Reporter gene assay) EUB0000569a RXRA
[24] = molecular target: T1, Hepatocyte nuclear factor 4-alpha (Homo sapiens); assay: Selectivity interaction (Reporter gene assay) EUB0000564a HNF4A
[25] = molecular target: T2, Nuclear receptor subfamily 2 group C member 1 (Homo sapiens); assay: Selectivity interaction (Reporter gene assay) EUB0000564a NR2C1
[26] = molecular target: Nuclear receptor subfamily 2 group E member 1 (Homo sapiens) (UniProt Q9Y466); assay: Selectivity interaction (Reporter gene assay) EUB0000564a NR2E1
[27] = molecular target: Nuclear receptor subfamily 4immunitygroup A member 1 (Homo sapiens) (UniProt P22736); assay: Selectivity interaction (Reporter gene assay) EUB0000564a NR4A1
[28] = molecular target: Steroidogenic factor 1 (Homo sapiens) (UniProt Q13285); assay: Selectivity interaction (Reporter gene assay) EUB0000564a NR5A1
[29] = molecular target: T3, Alpha trans-inducing protein (Human alphaherpesvirus 1); assay: Selectivity interaction (Reporter gene assay) EUB0000564a UL48
[30] = molecular target: T4, Retinoic acid receptor RXR-alpha (Homo sapiens); assay: Selectivity interaction (Reporter gene assay) EUB0000564a RXRA; details: reference bexarotene 1 uM, Selectivity number of off-targets 0.0, Selectivity number of targets 1.0, Source Knowledge inhouse
[31] = molecular target: T1, Hepatocyte nuclear factor 4-alpha (Homo sapiens); assay: Selectivity interaction (Reporter gene assay) EUB0000570a HNF4A
[32] = molecular target: T2, Nuclear receptor subfamily 2 group C member 1 (Homo sapiens); assay: Selectivity interaction (Reporter gene assay) EUB0000570a NR2C1
[33] = molecular target: Nuclear receptor subfamily 2 group E member 1 (Homo sapiens) (UniProt Q9Y466); assay: Selectivity interaction (Reporter gene assay) EUB0000570a NR2E1
[34] = molecular target: Nuclear receptor subfamily 4immunitygroup A member 1 (Homo sapiens) (UniProt P22736); assay: Selectivity interaction (Reporter gene assay) EUB0000570a NR4A1
[35] = molecular target: Steroidogenic factor 1 (Homo sapiens) (UniProt Q13285); assay: Selectivity interaction (Reporter gene assay) EUB0000570a NR5A1
[36] = molecular target: T3, Alpha trans-inducing protein (Human alphaherpesvirus 1); assay: Selectivity interaction (Reporter gene assay) EUB0000570a UL48
[37] = molecular target: T4, Retinoic acid receptor RXR-alpha (Homo sapiens); assay: Selectivity interaction (Reporter gene assay) EUB0000570a RXRA; details: reference bexarotene 1 uM, Selectivity number of off-targets 0.0, Selectivity number of targets 1.0, Source Knowledge inhouse

T3 sequence (A0A5J6DW59 as listed by the source): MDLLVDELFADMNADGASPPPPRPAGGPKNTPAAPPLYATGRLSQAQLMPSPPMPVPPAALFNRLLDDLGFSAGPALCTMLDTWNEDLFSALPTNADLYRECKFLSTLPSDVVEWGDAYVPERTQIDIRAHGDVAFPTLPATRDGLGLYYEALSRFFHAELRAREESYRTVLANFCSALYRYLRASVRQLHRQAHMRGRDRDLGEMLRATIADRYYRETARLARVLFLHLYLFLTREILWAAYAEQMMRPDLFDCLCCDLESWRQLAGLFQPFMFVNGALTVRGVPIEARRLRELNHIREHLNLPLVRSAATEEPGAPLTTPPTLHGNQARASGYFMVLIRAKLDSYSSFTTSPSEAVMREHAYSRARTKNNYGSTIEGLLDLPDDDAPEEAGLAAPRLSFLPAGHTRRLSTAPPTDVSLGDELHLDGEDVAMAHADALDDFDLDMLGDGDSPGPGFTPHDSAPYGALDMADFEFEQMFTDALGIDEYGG
Steroidogenic factor 1 (Homo sapiens), sequence (Q13285 whole entry): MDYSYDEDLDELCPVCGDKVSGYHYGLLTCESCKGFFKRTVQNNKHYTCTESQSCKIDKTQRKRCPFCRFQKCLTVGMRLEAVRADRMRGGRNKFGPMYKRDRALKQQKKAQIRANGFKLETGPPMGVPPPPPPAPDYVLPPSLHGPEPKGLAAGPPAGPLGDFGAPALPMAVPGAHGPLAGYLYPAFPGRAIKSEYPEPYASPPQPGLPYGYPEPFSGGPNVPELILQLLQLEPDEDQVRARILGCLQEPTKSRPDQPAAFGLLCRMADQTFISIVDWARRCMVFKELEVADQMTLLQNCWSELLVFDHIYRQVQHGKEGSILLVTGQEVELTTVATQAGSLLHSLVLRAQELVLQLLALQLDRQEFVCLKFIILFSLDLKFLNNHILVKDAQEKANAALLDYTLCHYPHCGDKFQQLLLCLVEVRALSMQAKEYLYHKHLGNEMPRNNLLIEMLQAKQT
Nuclear receptor subfamily 2 group E member 1 (Homo sapiens), sequence (Q9Y466 whole entry): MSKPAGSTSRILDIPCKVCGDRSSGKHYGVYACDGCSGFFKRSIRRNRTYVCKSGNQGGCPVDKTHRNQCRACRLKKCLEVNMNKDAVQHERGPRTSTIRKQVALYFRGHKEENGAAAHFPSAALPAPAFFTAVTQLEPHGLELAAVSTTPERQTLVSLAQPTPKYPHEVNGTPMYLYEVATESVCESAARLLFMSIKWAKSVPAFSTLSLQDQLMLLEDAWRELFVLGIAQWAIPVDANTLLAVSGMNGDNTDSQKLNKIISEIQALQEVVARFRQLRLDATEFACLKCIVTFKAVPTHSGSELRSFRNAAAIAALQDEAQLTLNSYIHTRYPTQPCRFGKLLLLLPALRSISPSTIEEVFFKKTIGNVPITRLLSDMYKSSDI
Nuclear receptor subfamily 4immunitygroup A member 1 (Homo sapiens), sequence (P22736 whole entry): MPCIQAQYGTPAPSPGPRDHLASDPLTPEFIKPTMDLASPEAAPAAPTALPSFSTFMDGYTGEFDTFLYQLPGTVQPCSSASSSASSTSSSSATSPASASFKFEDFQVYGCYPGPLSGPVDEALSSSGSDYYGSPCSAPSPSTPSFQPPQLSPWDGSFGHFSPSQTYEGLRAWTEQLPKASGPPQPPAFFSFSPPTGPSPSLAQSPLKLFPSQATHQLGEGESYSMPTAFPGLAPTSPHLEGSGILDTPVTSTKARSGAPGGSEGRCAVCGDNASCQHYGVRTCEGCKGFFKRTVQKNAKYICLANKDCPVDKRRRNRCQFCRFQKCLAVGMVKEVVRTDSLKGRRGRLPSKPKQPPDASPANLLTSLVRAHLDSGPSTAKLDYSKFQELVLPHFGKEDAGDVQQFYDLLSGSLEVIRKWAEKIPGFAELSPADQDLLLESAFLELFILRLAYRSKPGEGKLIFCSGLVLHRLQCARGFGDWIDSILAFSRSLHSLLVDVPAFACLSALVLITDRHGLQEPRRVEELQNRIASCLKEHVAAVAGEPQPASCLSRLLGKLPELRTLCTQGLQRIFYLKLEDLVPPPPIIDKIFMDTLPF
Peroxisome proliferator-activated receptor alpha (Homo sapiens), sequence (Q07869 whole entry): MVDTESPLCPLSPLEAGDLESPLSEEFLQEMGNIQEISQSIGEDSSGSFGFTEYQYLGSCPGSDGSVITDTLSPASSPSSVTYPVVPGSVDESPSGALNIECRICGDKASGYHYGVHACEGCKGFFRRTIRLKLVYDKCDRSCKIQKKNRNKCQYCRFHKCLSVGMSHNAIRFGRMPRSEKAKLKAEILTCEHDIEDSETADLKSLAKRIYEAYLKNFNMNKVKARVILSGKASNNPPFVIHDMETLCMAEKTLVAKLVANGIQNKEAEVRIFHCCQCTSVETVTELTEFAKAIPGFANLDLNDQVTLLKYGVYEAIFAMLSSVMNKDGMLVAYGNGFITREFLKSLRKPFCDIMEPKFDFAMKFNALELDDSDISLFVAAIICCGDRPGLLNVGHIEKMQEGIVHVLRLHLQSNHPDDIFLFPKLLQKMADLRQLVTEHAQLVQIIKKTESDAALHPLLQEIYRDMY

CC1(C)CCC(C)(C)c2cc(C(=O)Nc3ccc(C(=O)O)cc3)ccc21
Fold activation [1]: 1.07 | Remaining activity [2]: 0.976 | Remaining activity [3]: 0.642 | Fold activation [4]: 1.04 | Remaining activity [5]: 0.908 | P-value [6]: 0.0055 | Relative activation [7]: 0.898%

CCOC(=O)c1ccc(C#Cc2ccc3c(c2)C(C)(C)CCS3)nc1
Remaining activity [8]: 0.921 | Remaining activity [9]: 0.92 | Remaining activity [10]: 0.703 | Remaining activity [11]: 0.9 | Remaining activity [12]: 0.803 | P-value [13]: 0.00141 | Relative activation [14]: 0.694%

Cc1cc(SCc2sc(-c3ccc(C(F)(F)F)c(F)c3)nc2C)ccc1OCC(=O)O
Fold activation [15]: 14.8 | Fold activation [16]: 10.5 | Fold activation [17]: 1.11 | Fold activation [18]: 1.31 | Fold activation [19]: 1.36 | Fold activation [20]: 1.17 | Fold activation [21]: 1.02 | P-value [22]: 0.0031 | Relative activation [23]: 0.693%

COc1ccc(-c2ccc3cc(C(=O)O)ccc3c2)cc1C12CC3CC(CC(C3)C1)C2
Fold activation [24]: 1 | Fold activation [25]: 1.03 | Remaining activity [26]: 0.926 | Fold activation [27]: 1.11 | Remaining activity [28]: 0.896 | P-value [29]: 0.00282 | Relative activation [30]: 0.848%

CN(CCOc1ccc(C[C@H](Nc2ccccc2C(=O)c2ccccc2)C(=O)O)cc1)c1ccccn1
Remaining activity [31]: 0.831 | Fold activation [32]: 1.03 | Remaining activity [33]: 0.776 | Remaining activity [34]: 0.85 | Remaining activity [35]: 0.849 | P-value [36]: 1.12e-05 | Relative activation [37]: 0.731%
